System: subjects with moderately to severely active RA who have an inadequate response to methotrexate (MTX)
Experiment: Study 2 (monotherapy) - DAS28(CRP) scores
Assay type: in vivo, human
Excerpt: Randomized, double-blind, placebo-controlled, multicenter, phase IIb dose finding study of Compound 1 (dosed as a [Compound 1:HCl:3H2O]) administered for 24 weeks as monotherapy to subjects with moderately to severely active rheumatoid arthritis who have an inadequate response to methotrexate alone
Double-blind, placebo-controlled, monotherapy study in subjects with moderately to severely active RA who have an inadequate response to methotrexate (MTX) (oral or parenteral).
280 subjects randomized to one of 3 doses of Compound 1 (dosed as a [Compound 1:HCl:3H2O]) or to placebo, given once daily (q.d.).
Twelve weeks of treatment with Compound 1 (dosed as a [Compound 1:HCl:3H2O]) at 50 mg, 100 mg, or 200 mg q.d.; or placebo. At Week 12, all subjects on placebo and the subjects on the 50 mg dose who have not achieved 20% improvement in swollen joint count (SJC66) and tender joint count (TJC68) will be assigned to 100 mg q.d. in a blinded fashion and will continue treatment until Week 24. Subjects in the other groups will maintain their randomized treatment until Week 24.
The (DAS28(CRP)) is a system developed and validated by the European League Against Rheumatism (EULAR) to measure the progress and improvement of rheumatoid arthritis and has been extensively validated (Wells et al., 2008). The DAS28(CRP) scoring includes a 28 tender and swollen joint count, CRP measurement from blood analysis, and a general health assessment on a visual analog scale (Fransen et al., 2003).
DAS28(CRP) values range from 2.0 to 10.0, and more particularly reflect the following status: • Remission: DAS28(CRP) ≤2.6 • Low Disease activity: 2.6 <DAS28(CRP) ≤3.2 • Moderate Disease Activity: 3.2 <DAS28(CRP) ≤5.1 • High Disease Activity: DAS28(CRP) >5.1
In practice, the DAS28(CRP) measurement involves the evaluation 28 different joints including in the measurement (proximal interphalangeal joints (10 joints), metacarpophalangeal joints (10), wrists (2), elbows (2), shoulders (2), and knees (2)). When looking at these joints, both the number of joints with tenderness upon touching and swelling are counted.
Secondly, C-reactive protein level is measured.
Finally, the patient makes a subjective assessment of disease activity during the preceding 7 days on a scale between 0 and 100, where 0 is “no activity” and 100 is “highest activity possible”.
The DAS28(CRP) score is then calculated as follows:
Firstly, the patient is asked to make a vertical mark on a 100 mm Visual Analog Scale (VAS) corresponding to their general health or global disease activity on a touch screen to measure the VAS value, which is used in the formula below.
Secondly, a swollen and tender joint examination is then performed on the patient. The swollen and tender joints are recorded. From this examination are obtained the total amount of swollen joints (SJC) and the total amount of tender joints (TJC), which are used in the formula below.
Thirdly, C-reactive protein (CRP) levels are measured.
Finally, the values obtained above (VAS, TJC28, SJC28, and CRP) are computed into the following Formula to obtain the DAS28(CRP) score.
DAS28(CRP)=0.56*√{square root over (TJC28)}+0.28√{square root over (SJC28)}+[…] ln(CRP+1)+0.014*VAS
The improvement (decreases) in the DAS28(CRP) scores for each patient group at weeks 1, 2, 4, 8 and 12 is shown in Table LXXXVII and Table LXXXVIII below, together with the Hommel-corrected p-value for the pairwise comparisons of each group with placebo.
The number of subjects (N) provided in each groups corresponds to the number of subjects starting the study in each group, and the DAS28 (CRP) data reported below corresponds to the responding subjects continuing for the entire 24 weeks on their initial treatment course.

Question: Which results are given for `O=C(Nc1nc2cccc(-c3ccc(CN4CCS(=O)(=O)CC4)cc3)n2n1)C1CC1` [Compound 1, cyclopropanecarboxylic acid {5-[4-(1,1-dioxo-thiomorpholin-4-ylmethyl)-phenyl]-[1,2,4]triazolo[1,5-a]pyridin-2-yl}-amide]?
Answer: DAS28(CRP) mean CFB (LOCF) (50 mg q.d., week 1, 12 weeks results): −0.70; DAS28(CRP) mean CFB (LOCF) (50 mg q.d., week 2, 12 weeks results): −0.97; DAS28(CRP) mean CFB (LOCF) (50 mg q.d., week 2, 24 weeks results): −1.03; DAS28(CRP) mean CFB (LOCF) (50 mg q.d., week 4, 12 weeks results): −1.37; DAS28(CRP) mean CFB (LOCF) (50 mg q.d., week 4, 24 weeks results): −1.43; DAS28(CRP) mean CFB (LOCF) (50 mg q.d., week 12, 12 weeks results): −1.69; % patients reaching low disease activity and/or remission at week 12 (LOCF) (50 mg q.d., 12 weeks results): 24%; % patients reaching low disease activity at week 12 (LOCF) (50 mg q.d., 12 weeks results): 13%; % patients reaching remission at week 12 (LOCF) (50 mg q.d., 12 weeks results): 11%; % patients reaching low disease activity and/or remission at week 24 (LOCF) (50 mg q.d., 24 weeks results): 36%; % patients reaching low disease activity at week 24 (LOCF) (50 mg q.d., 24 weeks results): 17%; % patients reaching remission at week 24 (LOCF) (50 mg q.d., 24 weeks results): 19%; DAS28(CRP) mean CFB (LOCF) (50 mg q.d., week 8, 12 weeks results): −1.65; DAS28(CRP) mean CFB (LOCF) (50 mg q.d., week 8, 24 weeks results): −1.71; DAS28(CRP) mean CFB (LOCF) (100 mg q.d., week 1, 12 weeks results): −0.88; DAS28(CRP) mean CFB (LOCF) (100 mg q.d., week 2, 12 weeks results): −1.04; DAS28(CRP) mean CFB (LOCF) (100 mg q.d., week 2, 24 weeks results): −1.04; DAS28(CRP) mean CFB (LOCF) (100 mg q.d., week 4, 12 weeks results): −1.50; DAS28(CRP) mean CFB (LOCF) (100 mg q.d., week 4, 24 weeks results): −1.48; DAS28(CRP) mean CFB (LOCF) (100 mg q.d., week 12, 12 weeks results): −2.04; % patients reaching low disease activity and/or remission at week 12 (LOCF) (100 mg q.d., 12 weeks results): 28%; % patients reaching low disease activity at week 12 (LOCF) (100 mg q.d., 12 weeks results): 13%; % patients reaching remission at week 12 (LOCF) (100 mg q.d., 12 weeks results): 14%; % patients reaching low disease activity and/or remission at week 24 (LOCF) (100 mg q.d., 24 weeks results): 50%; % patients reaching low disease activity at week 24 (LOCF) (100 mg q.d., 24 weeks results): 29%; % patients reaching remission at week 24 (LOCF) (100 mg q.d., 24 weeks results): 21%; DAS28(CRP) mean CFB (LOCF) (100 mg q.d., week 8, 12 weeks results): −1.91; DAS28(CRP) mean CFB (LOCF) (200 mg q.d., week 1, 12 weeks results): −1.15; DAS28(CRP) mean CFB (LOCF) (200 mg q.d., week 2, 12 weeks results): −1.54; DAS28(CRP) mean CFB (LOCF) (200 mg q.d., week 2, 24 weeks results): −1.55; DAS28(CRP) mean CFB (LOCF) (200 mg q.d., week 4, 12 weeks results): −1.87; DAS28(CRP) mean CFB (LOCF) (200 mg q.d., week 4, 24 weeks results): −1.87; DAS28(CRP) mean CFB (LOCF) (200 mg q.d., week 12, 12 weeks results): −2.33; % patients reaching low disease activity and/or remission at week 12 (LOCF) (200 mg q.d., 12 weeks results): 45%; % patients reaching low disease activity at week 12 (LOCF) (200 mg q.d., 12 weeks results): 28%; % patients reaching remission at week 12 (LOCF) (200 mg q.d., 12 weeks results): 17%; % patients reaching low disease activity and/or remission at week 24 (LOCF) (200 mg q.d., 24 weeks results): 46%; % patients reaching low disease activity at week 24 (LOCF) (200 mg q.d., 24 weeks results): 19%; % patients reaching remission at week 24 (LOCF) (200 mg q.d., 24 weeks results): 28%; DAS28(CRP) mean CFB (LOCF) (200 mg q.d., week 8, 12 weeks results): −2.24

— patent publication US20180200257A1, “METHODS FOR THE TREATMENT OF INFLAMMATORY DISORDERS” (Galapagos NV, priority 2015, published 2018)
